Reference: PubChem BioAssay AID1963426 (Molecular Pharmacology Branch, DTP, NCI, 2024)

System: 186277-243-T-J2-PDC complex spheroid growth, % test/control
Assay: Anticancer human tumor 186277-243-T-J2-PDC patient-derived colon adenocarcinoma cell line growth inhibition [Asc]
Conditions: for IC50: curve of first compound; for viability, T/C: stronger effect = lower value; active = viability on the fitted dose curve at most 10% of control; inactive = the rest
Summary of the method: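 Tumor cells were grown as complex spheroids with human endothelial cells (HUVEC) and human mesenchymal stem cells as stroma. Agents were tested alone and in combination, in half-log steps down from the clinical Cmax, or from 10 microM where Cmax was unknown.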
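Also: spheroids exposed to agents for 7 days.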
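For viability, T/C in this document: 100% = DMSO vehicle control wells.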

COc1c(OCCCN2CCOCC2)ccc2c3n(c(=NC(=O)c4cnc(N)nc4)nc12)CCN3 + CNC(C)C(=O)NC1CN(S(=O)(=O)c2cccc(S(=O)(=O)N3CCC4CCC(C(=O)NC(c5ccccc5)c5ccccc5)N4C(=O)C(NC(=O)C(C)NC)C3)c2)CCC2CCC(C(=O)NC(c3ccccc3)c3ccccc3)N2C1=O
98.2 nM: IC50 (second compound 0.0316 µM)
72.3 nM: IC50 (second compound 0.01 µM)
86.3 nM: IC50 (second compound 0.316 µM)
84.8 nM: IC50 (second compound 1 µM)
82.1 nM: IC50 (second compound 0.1 µM)
inactive: viability, T/C (second compound 0.01 µM, first compound 0.00316 µM) 98.5% | viability, T/C (second compound 0.01 µM, first compound 0.01 µM) 105% | viability, T/C (second compound 0.01 µM, first compound 0.0316 µM) 62.4% | viability, T/C (second compound 0.01 µM, first compound 0.1 µM) 47.4% | viability, T/C (second compound 0.01 µM, first compound 0.316 µM) 25.2% | viability, T/C (second compound 0.01 µM, first compound 1 µM) 19.6% | viability, T/C (second compound 0.0316 µM, first compound 0.00316 µM) 99.3% | viability, T/C (second compound 0.0316 µM, first compound 0.01 µM) 128% | viability, T/C (second compound 0.0316 µM, first compound 0.0316 µM) 77.7% | viability, T/C (second compound 0.0316 µM, first compound 0.1 µM) 54.3% | viability, T/C (second compound 0.0316 µM, first compound 0.316 µM) 24.9% | viability, T/C (second compound 0.0316 µM, first compound 1 µM) 19.1% | viability, T/C (second compound 0.1 µM, first compound 0.00316 µM) 114% | viability, T/C (second compound 0.1 µM, first compound 0.01 µM) 120% | viability, T/C (second compound 0.1 µM, first compound 0.0316 µM) 68.3% | viability, T/C (second compound 0.1 µM, first compound 0.1 µM) 50.9% | viability, T/C (second compound 0.1 µM, first compound 0.316 µM) 25.1% | viability, T/C (second compound 0.1 µM, first compound 1 µM) 18.1% | viability, T/C (second compound 0.316 µM, first compound 0.00316 µM) 108% | viability, T/C (second compound 0.316 µM, first compound 0.01 µM) 113% | viability, T/C (second compound 0.316 µM, first compound 0.0316 µM) 74.9% | viability, T/C (second compound 0.316 µM, first compound 0.1 µM) 48.5% | viability, T/C (second compound 0.316 µM, first compound 0.316 µM) 25.6% | viability, T/C (second compound 0.316 µM, first compound 1 µM) 18.5% | viability, T/C (second compound 1 µM, first compound 0.00316 µM) 108% | viability, T/C (second compound 1 µM, first compound 0.01 µM) 104% | viability, T/C (second compound 1 µM, first compound 0.0316 µM) 75.2% | viability, T/C (second compound 1 µM, first compound 0.1 µM) 48.2% | viability, T/C (second compound 1 µM, first compound 0.316 µM) 21.3% | viability, T/C (second compound 1 µM, first compound 1 µM) 17.7%

CCN1CCN(Cc2ccc(Nc3ncc(F)c(-c4cc(F)c5nc(C)n(C(C)C)c5c4)n3)nc2)CC1 + CCN1C(C(=O)NC23CCC(C(=O)O)(CC2)CC3)C(c2cccc(Cl)c2F)C2(C(=O)Nc3cc(Cl)ccc32)C12CCCCC2
< 3.16 nM: IC50 (second compound 3 µM)
> 1000 nM: IC50 (second compound 0.03 µM) | IC50 (second compound 0.0949 µM)
24.6 nM: IC50 (second compound 0.949 µM)
704 nM: IC50 (second compound 0.3 µM)
inactive: viability, T/C (second compound 0.03 µM, first compound 0.00316 µM) 114% | viability, T/C (second compound 0.03 µM, first compound 0.01 µM) 130% | viability, T/C (second compound 0.03 µM, first compound 0.0316 µM) 112% | viability, T/C (second compound 0.03 µM, first compound 0.1 µM) 97% | viability, T/C (second compound 0.03 µM, first compound 0.316 µM) 99.6% | viability, T/C (second compound 0.03 µM, first compound 1 µM) 85.2% | viability, T/C (second compound 0.0949 µM, first compound 0.00316 µM) 107% | viability, T/C (second compound 0.0949 µM, first compound 0.01 µM) 99.8% | viability, T/C (second compound 0.0949 µM, first compound 0.0316 µM) 89.4% | viability, T/C (second compound 0.0949 µM, first compound 0.1 µM) 75% | viability, T/C (second compound 0.0949 µM, first compound 0.316 µM) 82.3% | viability, T/C (second compound 0.0949 µM, first compound 1 µM) 64.7% | viability, T/C (second compound 0.3 µM, first compound 0.00316 µM) 68.1% | viability, T/C (second compound 0.3 µM, first compound 0.01 µM) 74.7% | viability, T/C (second compound 0.3 µM, first compound 0.0316 µM) 65.8% | viability, T/C (second compound 0.3 µM, first compound 0.1 µM) 61.6% | viability, T/C (second compound 0.3 µM, first compound 0.316 µM) 64.2% | viability, T/C (second compound 0.3 µM, first compound 1 µM) 44.6% | viability, T/C (second compound 0.949 µM, first compound 0.00316 µM) 49.7% | viability, T/C (second compound 0.949 µM, first compound 0.01 µM) 52.6% | viability, T/C (second compound 0.949 µM, first compound 0.0316 µM) 50.4% | viability, T/C (second compound 0.949 µM, first compound 0.1 µM) 44.3% | viability, T/C (second compound 0.949 µM, first compound 0.316 µM) 39.5% | viability, T/C (second compound 0.949 µM, first compound 1 µM) 34.7% | viability, T/C (second compound 3 µM, first compound 0.00316 µM) 29.1% | viability, T/C (second compound 3 µM, first compound 0.01 µM) 31.5% | viability, T/C (second compound 3 µM, first compound 0.0316 µM) 26.8% | viability, T/C (second compound 3 µM, first compound 0.1 µM) 25.7% | viability, T/C (second compound 3 µM, first compound 0.316 µM) 23.2% | viability, T/C (second compound 3 µM, first compound 1 µM) 24.6%
